Read-outs that look alike come from different tables or passages of the source.
Tests used:
[1] = Drug solubility in oil at room temperature; format: physicochemical; details: for Drug solubility in Miglyol: Miglyol 812
[2] = cited from earlier work

| solubility in diethyl phthalate [1] | Compound | Drug solubility in Diethyl Phthalate [1] | Drug solubility in Miglyol [1] | water solubility ([2]; pH 4.0) | water solubility ([2]; pH 7.4) |
| --- | --- | --- | --- | --- | --- |
| relatively low | CC(=O)[C@@]1(O)CC[C@H]2[C@@H]3C[C@H](C)C4=CC(=O)C=C[C@]4(C)[C@@]3(F)[C@@H](O)C[C@@]21C [Fluorometholone] | 0.075% | < 0.001% | – | – |
| – | CC(C(=O)O)c1ccc(-c2ccccc2)c(F)c1 (stereo not shown) [Flurbiprofen (free acid)] | 12-20% | 2-4% | very small | higher |

Reference: patent publication US5441732A, “Reversible gelation emulsion compositions and methods of use” (Allergan, Inc., priority 1992, dated 1995)
